Data taken from publication PMC9182202 (Molecules, 2022).
Values after ≈ are worked out from the molar mass of the structure shown.

Legend:
[1] = target: T1, Torpedo californica AChE (TcAChE) (Tetronarce californica, UniProt P04058); experiment: biochemical; conditions: mean ± SEM of three experiments
T1 construct: purchased Sigma-Aldrich Corporation
Description: (§1) The enzyme activity was measured in vitro via a modified spectrophotometric method developed by Ellman et al.. Acetylthiocholine iodide (ATCh) and butyrylthiocholine chloride (BTCh) were used as substrates for the AChE and BChE enzymes, respectively. Ellman reagent, i.e., 5,5-dithiobis (2-nitro) benzoic acid (DTNB), was used to produce the chromogenic indicator for the measurement of the ChE activity using a SpectraMax microplate spectrophotometer (Molecular Devices, CA, USA), as reported previously.
(§2) The IC50 values were calculated using the EZ-Fit program (Perrella Scientific Inc., Amherst, MA, USA). Lineweaver–Burk plots, Dixon plots, and their secondary replots were used to observe the effects of the compound on the values of Km and Vmax. Dixon plots, Lineweaver–Burk plots, and the secondary replots of Lineweaver–Burk plots were used to determine Ki values using initial velocities. […] The graphical analysis of the Dixon plots, Lineweaver–Burk plots, and their secondary plots was used to determine the inhibition type.

BChE (horse serum) = target: T2, BChE (horse serum) (Equus caballus, UniProt P81908); experiment: biochemical; type: biochemical
T2 construct: purchased Sigma-Aldrich Corporation; host or cells: horse serum
T2 sequence (P81908 whole entry): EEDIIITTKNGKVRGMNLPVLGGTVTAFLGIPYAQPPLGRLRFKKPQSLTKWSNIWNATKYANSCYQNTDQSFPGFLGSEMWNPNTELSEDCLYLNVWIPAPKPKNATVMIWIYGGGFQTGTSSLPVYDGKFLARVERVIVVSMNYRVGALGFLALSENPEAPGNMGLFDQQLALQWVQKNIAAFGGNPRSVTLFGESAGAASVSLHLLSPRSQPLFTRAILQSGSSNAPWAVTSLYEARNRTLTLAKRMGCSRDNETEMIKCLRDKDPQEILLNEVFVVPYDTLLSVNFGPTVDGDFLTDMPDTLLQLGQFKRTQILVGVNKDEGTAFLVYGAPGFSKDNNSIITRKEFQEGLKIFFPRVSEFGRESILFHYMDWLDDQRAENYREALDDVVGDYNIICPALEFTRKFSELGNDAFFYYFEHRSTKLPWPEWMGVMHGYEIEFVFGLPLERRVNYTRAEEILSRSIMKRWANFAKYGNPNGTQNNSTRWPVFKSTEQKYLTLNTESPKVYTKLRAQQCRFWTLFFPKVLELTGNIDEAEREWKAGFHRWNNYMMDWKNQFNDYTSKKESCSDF
Description: as §1, §2

[2] = test system: voltage-dependent Ca^2+ channels; experiment: Ca2+ concentration-response curves in Ca2+-free medium, rabbit jejunum; conditions: Ca^2+-free medium, Sarcorucinine-D 10–30 µg/mL, verapamil 0.05–0.5 µg/mL
Description: Another set of confirmatory experiments was also performed to be sure of any potential CCB activity. For this, the regular Tyrode’s physiological salt solution in which the tissues were originally immersed was removed. The baths were filled with a Ca^2+–free Tyrode’s solution with EDTA (0.1 mM). The tissues were left in this solution for half an hour. Later, another replacement was carried out using K^+-rich and Ca^2+-free Tyrode’s solution. The tissues were again left to stabilize for half an hour, and then, the control concentration–response curves of Ca^2+ were constructed and recorded. These control Ca^2+ concentration–response curves were duplicated after pretreatment of the tissues for one hour with different concentrations of Sarcorucinine-D. Any possible CCB effect of Sarcorucinine-D would tend to displace the Ca^2+ concentration–response curves to the right-hand side. The effects of Sarcorucinine-D were compared to those of a standard CCB, verapamil.

MTT cytotoxicity test = conditions: bovine, MDBK adherent cells
Description: (§3) The MTT (3-[4,5-dimethylthazol-2-yl]-2,5-diphenyltetrazolium bromide) test was performed using MDBK adherent cells.

MDBK cells = experiment: MTT cytotoxicity test; conditions: MDBK, MTT, concentration range 0.019–1.56 μg/mL, 72 h
Description: as §3

phosphodiesterase = test system: phosphodiesterase
Description: (§4) To test the selectivity of the compound, Sarcorucinine-D was also tested for the inhibition of several other enzymes such as phosphodiesterase, α-glucosidase, β-glucuronidase, and urease enzymes. The assays of these enzymes are reported elsewhere.

α-glucosidase = test system: α-glucosidase
Description: as §4

urease = experiment: Selectivity screen: urease inhibition; type: biochemical
β-glucuronidase = experiment: Selectivity screen: β-glucuronidase inhibition; type: biochemical

T1 sequence (P04058 22-586): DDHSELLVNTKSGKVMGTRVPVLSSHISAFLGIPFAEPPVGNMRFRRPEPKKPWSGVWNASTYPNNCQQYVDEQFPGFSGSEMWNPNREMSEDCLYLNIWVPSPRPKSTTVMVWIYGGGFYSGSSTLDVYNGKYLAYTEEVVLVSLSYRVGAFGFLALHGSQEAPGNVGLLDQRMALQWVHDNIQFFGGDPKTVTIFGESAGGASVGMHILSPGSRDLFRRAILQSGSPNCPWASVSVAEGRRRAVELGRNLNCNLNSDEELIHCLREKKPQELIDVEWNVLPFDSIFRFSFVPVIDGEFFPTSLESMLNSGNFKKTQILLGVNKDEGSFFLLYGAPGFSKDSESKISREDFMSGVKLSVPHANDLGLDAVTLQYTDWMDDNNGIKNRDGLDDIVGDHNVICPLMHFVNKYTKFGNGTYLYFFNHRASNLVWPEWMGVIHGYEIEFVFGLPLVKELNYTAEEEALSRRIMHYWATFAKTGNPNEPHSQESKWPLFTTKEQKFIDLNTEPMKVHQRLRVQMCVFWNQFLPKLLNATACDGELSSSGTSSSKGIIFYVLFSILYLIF

Row | SMILES | Ki ([1]; from Dixon plot, Lineweaver–Burk plot and secondary replots, read-out: Acetylcholinesterase Ki) | IC50 ([1]; read-out: Acetylcholinesterase IC50) | IC50 (BChE (horse serum)) | Ki (BChE (horse serum)) | Selectivity toward BChE over AChE (BChE (horse serum); from the data of Table 1) | Effect on CaCl2 concentration–response curves [2] | IC50 at 72 h (MTT cytotoxicity test) | Cytotoxic effect at low concentrations (MDBK cells) | Selectivity screen result, phosphodiesterase (phosphodiesterase) | Selectivity screen result, α-glucosidase (α-glucosidase) | Selectivity screen result, urease (urease) | Selectivity screen result, β-glucuronidase (β-glucuronidase)
1 | CC(C1CCC2C3CCC4CC(O)CCC4(C)C3CCC21C)N(C)C (stereo not shown) [Sarcorucinine-D] | 103 ± 6.67 µM | 42.9 ± 3.13 µM | 8.87 ± 0.56 µM | 4.66 ± 0.3 µM | approximately 22 times | displaced the CaCl2 curves to the right | 2.24 µg/mL (≈ 6.44 µM) | No cytotoxic effect | selective ChE inhibitor | selective ChE inhibitor | selective ChE inhibitor | selective ChE inhibitor
2 | COc1ccc(CCN(C)CCCC(C#N)(c2ccc(OC)c(OC)c2)C(C)C)cc1OC (stereo not shown) [verapamil, reference compound] |  |  |  |  |  | displaced the CaCl2 curves to the right |  |  |  |  |  | 
